# Assay results taken from US20120132797A1, “MEANS AND METHODS FOR DIAGNOSING THYROID DISORDERS” (BASF SE, priority 2009, published 2012).
# Values joined by “and” are separate entries in the source; they are usually repeats but may differ in a detail not shown here. Equal entries are not always repeated.
# Test system: Wistar (Crl:WI(Han)) rats
# Assay: Mass spectrometry-based plasma metabolite profiling of rats treated with known inducers of thyroid function impairment
# Type: in vivo, rat
# Settings: ratio of group medians vs controls
# Description: At the beginning of the study the animals were 10-11 weeks old. Each dose group in the studies consisted of five rats per sex, and was compared with controls (10 rats per sex). […] The dose levels were chosen to show the typical overt (high dose) and slight (low dose) toxicological symptoms of the substances as described in the literature or in BASF internal study reports.
# Blood samples were withdrawn from the retro-orbital sinus in all rats under isoflurane anesthesia on study days 7, 14 and 28 after a fasting period of 16-20 hours.
# For mass spectrometry-based metabolite profiling analysis, plasma samples were extracted by a proprietary method which delivers a polar and a non-polar fraction. For GC-MS analysis, the non-polar fraction was treated with methanol under acidic conditions to yield the fatty acid methyl esters. Both fractions were further derivatised with Omethyl-hydroxyamine hydrochloride and pyridine to convert oxo groups to Omethyloximes and subsequently with a silylating agent before analysis.
# In LC-MS/MS analysis, both fractions were reconstituted in appropriate solvent mixtures. HPLC was performed by gradient elution on reversed phase separation columns. For mass spectrometric detection metanomics proprietary technology was applied, which allows target and high sensitivity MRM (Multiple Reaction Monitoring) profiling in parallel to a full screen analysis. […] Moreover, several hundred additional analytes giving a fingerprint of the sample were included in the methods.
# Following comprehensive analytical validation steps, the data for each analyte were normalized against data from pool samples. These samples were run in parallel through the whole process to account for process variability.
# The sex- and day-stratified heteroscedastic t-test (“Welch test”) was applied to compare treated groups with respective controls. p-Values and ratios of corresponding group medians were collected as metabolic profiles and fed into a database.
# [1] = female rats, fh7 (study day 7), Table 1
# [2] = female rats, fh14 (study day 14), Table 1
# [3] = female rats, fh28 (study day 28), Table 1
# [4] = male rats, mh7 (study day 7), Table 2
# [5] = male rats, mh14 (study day 14), Table 2
# [6] = male rats, mh28 (study day 28), Table 2
compound,measurement,setting,value
S=C1NCCN1 [Ethylenethiourea],5-O-Methylsphingosine,[1],1.29 and 1.20
same,Asparagine,[1],1.06 and 1.35
same,Behenic acid (C22:0),[1],1.48 and 1.27
same,Citrate,[1],0.89 and 0.78
same,"Docosahexaenoic acid (C22:cis[4,7,10,13,16]6)",[1],1.12 and 1.29
same,Glycine,[1],1.21 and 1.09
same,Ketoleucine,[1],0.93 and 0.84
same,Lysophosphatidylcholine (C18:2),[1],1.08
same,"Phosphatidylcholine (C16:1, C18:2)",[1],1.43 and 1.26
same,"Phosphatidylcholine (C18:2, C20:4)",[1],1.09 and 1.02
same,Pyruvate,[1],1.29 and 0.74
same,Tricosanoic acid (C23:0),[1],1.38 and 1.44
same,erythro-Sphingosine,[1],1.46 and 1.39
same,threo-Sphingosine,[1],1.35 and 1.58
same,"Sphingomyelin (d18:1, C16:0)","female rats, fh7 (study day 7), Table 1, first listing",1.71 and 1.62
same,"Sphingomyelin (d18:1, C16:0)","female rats, fh7 (study day 7), Table 1, second listing",1.29 and 1.46
same,5-O-Methylsphingosine,[2],1.56 and 1.59
same,Asparagine,[2],1.31 and 1.27
same,Behenic acid (C22:0),[2],1.29 and 1.69
same,Citrate,[2],0.85 and 0.86
same,"Docosahexaenoic acid (C22:cis[4,7,10,13,16]6)",[2],1.45 and 1.24
same,Glycine,[2],1.24 and 1.18
same,Ketoleucine,[2],0.84 and 0.82
same,Lysophosphatidylcholine (C18:2),[2],1.19 and 1.17
same,"Phosphatidylcholine (C16:1, C18:2)",[2],1.43 and 1.54
same,"Phosphatidylcholine (C18:2, C20:4)",[2],1.15 and 1.09
same,Pyruvate,[2],0.79 and 1.14
same,Tricosanoic acid (C23:0),[2],1.52 and 1.30
same,erythro-Sphingosine,[2],1.71 and 1.98
same,threo-Sphingosine,[2],1.47 and 1.61
same,"Sphingomyelin (d18:1, C16:0)","female rats, fh14 (study day 14), Table 1, first listing",1.43 and 1.55
same,"Sphingomyelin (d18:1, C16:0)","female rats, fh14 (study day 14), Table 1, second listing",1.06 and 1.34
same,5-O-Methylsphingosine,[3],1.63 and 1.59
same,Asparagine,[3],1.26 and 0.84
same,Behenic acid (C22:0),[3],1.69 and 1.27
same,Citrate,[3],0.70 and 0.91
same,"Docosahexaenoic acid (C22:cis[4,7,10,13,16]6)",[3],1.22 and 1.11
same,Glycine,[3],1.32 and 1.01
same,Ketoleucine,[3],0.88 and 0.74
same,Lysophosphatidylcholine (C18:2),[3],1.10 and 1.23
same,"Phosphatidylcholine (C16:1, C18:2)",[3],1.41 and 1.30
same,"Phosphatidylcholine (C18:2, C20:4)",[3],1.06 and 1.04
same,Pyruvate,[3],0.69 and 1.04
same,Tricosanoic acid (C23:0),[3],1.42 and 1.05
same,erythro-Sphingosine,[3],1.51 and 1.35
same,threo-Sphingosine,[3],1.51 and 1.26
same,"Sphingomyelin (d18:1, C16:0)","female rats, fh28 (study day 28), Table 1, first listing",1.70 and 1.38
same,"Sphingomyelin (d18:1, C16:0)","female rats, fh28 (study day 28), Table 1, second listing",1.16 and 1.07
same,3-O-Methylsphingosine,[4],2.26
same,5-O-Methylsphingosine,[4],2.36
same,14-Methyl-Pentadecanoic acid,[4],0.98
same,17-Methyloctadecanoic acid,[4],0.97
same,Arginine,[4],1.24
same,Cholesterol,[4],1.74
same,Citrate,[4],0.86
same,"Dihom-gamma-Linolenic acid (C20:cis[8,11,14]3)",[4],2.34
same,Lignoceric acid (C24:0),[4],1.94
same,Phytosphingosine,[4],1.53
same,"Sphingomyelin (d18:1, C16:0)",[4],1.65
same,Tricosanoic acid (C23:0),[4],1.67
same,alpha-Tocopherol,[4],2.58
same,erythro-Sphingosine,[4],2.06
same,threo-Sphingosine,[4],2.05
same,Glutamate,"male rats, mh7 (study day 7), Table 2, first listing",1.07
same,Glutamate,"male rats, mh7 (study day 7), Table 2, second listing",1.15
same,3-O-Methylsphingosine,[5],2.34
same,5-O-Methylsphingosine,[5],2.37
same,14-Methyl-Pentadecanoic acid,[5],0.96
same,17-Methyloctadecanoic acid,[5],0.83
same,Arginine,[5],1.30
same,Cholesterol,[5],2.25
same,Citrate,[5],0.81
same,"Dihom-gamma-Linolenic acid (C20:cis[8,11,14]3)",[5],1.84
same,Lignoceric acid (C24:0),[5],1.66
same,Phytosphingosine,[5],1.67
same,"Sphingomyelin (d18:1, C16:0)",[5],1.69
same,Tricosanoic acid (C23:0),[5],2.01
same,alpha-Tocopherol,[5],2.99
same,erythro-Sphingosine,[5],2.06
same,threo-Sphingosine,[5],2.03
same,Glutamate,"male rats, mh14 (study day 14), Table 2, first listing",0.73
same,Glutamate,"male rats, mh14 (study day 14), Table 2, second listing",0.82
same,3-O-Methylsphingosine,[6],2.91
same,5-O-Methylsphingosine,[6],2.78
same,14-Methyl-Pentadecanoic acid,[6],0.77
same,17-Methyloctadecanoic acid,[6],0.89
same,Arginine,[6],1.20
same,Cholesterol,[6],1.98
same,Citrate,[6],0.64
same,"Dihom-gamma-Linolenic acid (C20:cis[8,11,14]3)",[6],2.68
same,Lignoceric acid (C24:0),[6],2.07
same,Phytosphingosine,[6],2.17
same,"Sphingomyelin (d18:1, C16:0)",[6],1.79
same,Tricosanoic acid (C23:0),[6],2.39
same,alpha-Tocopherol,[6],3.13
same,erythro-Sphingosine,[6],2.29
same,threo-Sphingosine,[6],2.05
same,Glutamate,"male rats, mh28 (study day 28), Table 2, first listing",0.70
same,Glutamate,"male rats, mh28 (study day 28), Table 2, second listing",0.77
